Assay results published in patent US10093629B2, “Heterocyclic compounds and their use as retinoid-related orphan receptor (ROR) gamma-T inhibitors” (Takeda Pharmaceutical Company Limited, priority 2014, dated 2018).

Experiments:
[1] = test system: IL-17 production in human blood; assay: Effect on IL-17 production in human blood; format: cell-based; details: 72 h; 10 μM test compound; human peripheral blood, IL-23 and Dynabeads stimulation, 3 days; read-out: percent inhibition at 10 μM (IL-17 production)
In short: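 Heparinized healthy-donor whole blood pre-incubated with compound 30 min at 37° C, then stimulated with IL-23 (added as 100 ng/mL solution) plus Dynabeads Human for 3 days at 37° C. Supernatant IL-17 measured by ELISA; values given as percent inhibition at 10 μM compound.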

IL-17A gene expression = assay: Effect on IL-23-induced cytokine expression in mice; format: in vivo, mouse; details: 3 mg/kg oral, 30 min before and 8 hr after IL-23; ear of Balb/c mice; versus the negative control group
[2] = test system: IL-23-induced mouse psoriasis model; assay: IL-23-induced mouse psoriasis model; format: in vivo; details: 3 mg/kg oral twice daily, Balb/c mice, versus the negative control group
Protocol: Effect in an IL-23-Induced Mouse Psoriasis Model
Mouse IL-23 (500 ng/15 μL, R&D) or PBS (15 μL, negative control group) was administered intradermally in the ear of Balb/c mice (Charles River Japan, male, 7 weeks old) 5 times every other days. Seven hr after IL-23 administration at 8 days after the initial administration (final administration), the mice were anesthetized with isoflurane, and ear thickness was measured with calipers. After the ear thickness was measured, the ear was resected, tissue 8 mm in diameter was punched from an area centering on the IL-23 injection site, and the tissue was weighed. The punched ear tissue was cut in half, and one half was immersion-fixed in 10% neutral buffer formalin solution for use in histopathological evaluation. The other half was immersed in RNAlater (QIAGEN) for at least 18 hr for use in an evaluation of the IL-17A mRNA expression level. The test compound was suspended in 0.5% methylcellulose and administered orally twice daily on consecutive days from 30 min before the initial IL-23 administration to 30 min before the final IL-23 administration.
The change in ear thickness in this model was evaluated by calculating the difference in measured thickness between before IL-23 administration and 7 hr after the final IL-23 administration. In addition, the formalin-fixed tissue was embedded and sectioned, then stained with hematoxylin-eosin. The degree of acanthosis was then evaluated qualitatively by microscopy (classified with a score of 0 to 4). RNA extraction from the ear tissue and quantitative PCR were performed as follows. As described above, ear tissue treated with RNAlater (QIAGEN) was homogenized in 350 μL of RLT buffer (RNeasy mini kit, QIAGEN) and treated (55° C., 10 min) with Proteinase K (QIAGEN). Total RNA was then extracted according to the RNeasy mini kit protocol. The RNA thus obtained was reverse transcribed into cDNA using the High-Capacity RNA-to-cDNA kit (Applied Biosystems), and the expression of each gene was measured by real-time PCR (Viia7™, Applied Biosystems). The PCR buffer used was TaqMan Fast Advanced Master Mix (Applied Biosystems), and TaqMan Gene Expression Assays (Applied Biosystems) Mm00439618_m1 (IL-17A) and 4352341E (β-actin) were used to detect the genes. The IL-17A gene expression level was normalized to the β-actin gene expression level, and the percent inhibition of IL-17A gene expression with the test compound was then calculated.
The results (percent inhibition of ear thickness, acanthosis score and IL-17A gene expression with oral administration of the test compound) measured by the above-mentioned method are shown in Table 10.

[3] = test system: T cell-transferred mouse colitis model; assay: T cell-transferred mouse colitis model; format: in vivo; details: 3 mg/kg oral twice daily; SCID mice, 21 days after cell transfer; versus the negative control group
Text: Effect in a T Cell-Transferred Mouse Colitis Model
Balb/c mice (Charles River Japan, female, 8 weeks old) were euthanized, and the spleens were resected, mashed in mesh, and passed through cell strainer to prepare a suspension of splenic cells. The mononuclear cell fraction in the splenic cells was isolated by density-gradient centrifugation, and subjected to hemolysis treatment with ammonium chloride buffer solution (Immuno-Biological Laboratories, Co., Ltd.). The naive T-cells were purified using CD4+CD62L+ T Cell Isolation Kit II (Miltenyi Biotec). The naive T-cells (2×10^5 cells/mouse) were intravenously transferred into SCIDmice (CLEA Japan, female, 8 weeks old). The compound was suspended in 0.5% methyl cellulose, and the suspension was orally administered twice daily on consecutive days from the same evening of the cell transfer. The mice were blinded 20 days after the cell transfer, and the symptom of the stool on floorcloth under blind was evaluated by scores of 1 to 4 (1: normal, 2: loose stool, 3: diarrhea (formed), 4: diarrhea (unformed)) 21 days after the cell transfer. […] The large intestine was washed with saline, and the weight was measured.
The results (percent inhibition of intestinal tract weight and diarrhea score with oral administration of the test compound) measured by the above-mentioned method are shown in Table 11.

mouse EAE model = assay: Mouse EAE model; format: in vivo; details: 3 mg/kg oral; C57BL/6J mice; integration value of clinical score for 28 days; versus the negative control group
Protocol: Effect in a Mouse EAE Model
. C57BL/6J mice (10 weeks old, female, Charles River Japan) were grouped based on the body weight, and the MOG emulsion was intradermally administered at two point of the joint of dorsal hindlimb so that the dose was 100 μL/site, 200 μL/mouse. In addition, Pertussis toxin (Merck) was intraperitoneally administered twice on the sensitization day and 2 days thereafter in the dose of 400 ng/200 μL/mouse. The body weight was measured twice a week before onset and everyday (excluding holiday) after onset from the sensitization day. The clinical score was evaluated by the following standard scores of 0 to 5 (0: normal, 0.5: partial paralysis of tail, 1: complete paralysis of tail, 2: partial paralysis of hindlimb, 3: paralysis of lower body, 4: partial paralysis of forelimb, 5: paralysis of both forelimbs or death) by observation everyday (excluding holiday) after the beginning of onset.
The percent inhibition of the clinical score of the test compound administration group relative to that of the control group was calculated using integration value of the clinical score for 28 days.
The results (percent inhibition of clinical score with oral administration of the test compound) measured by the above-mentioned method are shown in Table 12.

`COc1ccc2c(n1)CCN(C(=O)[C@H]1C[C@@H](CC(=O)O)C1)[C@H]2C(=O)Nc1cc(F)c2c(c1)CCC2(C)C` [Example 15, (cis-3-(((5R)-5-((7-fluoro-1,1-dimethyl-2,3-dihydro-1H-inden-5-yl)carbamoyl)-2-methoxy-7,8-dihydro-1,6-naphthyridin-6(5H)-yl)carbonyl)cyclobutyl)acetic acid] was tested, and the inhibition at 10 µM [1] was 94%, the “percent inhibition of IL-17A gene expression” value (IL-17A gene expression) was 99% and the “percent inhibition of acanthosis score” value [2] was 53%. For the same compound, the “percent inhibition of ear thickness” value [2] was 61%, the “percent inhibition of IL-17A expression” value ([2]; ear tissue) was 93% and the “percent inhibition of diarrhea score” value [3] was 81%. The “percent inhibition of intestinal tract weight” value [3] was 58% and the “percent inhibition of clinical score” value (mouse EAE model) was 64%.
